The values below are quoted from earlier work in patent US20230364032A1, “USE OF 2-HOBA TO TREAT ATHEROSCLEROSIS” (Vanderbilt University, priority 2020, published 2023).

One data set deals with Apoe−/− mice. To be noted: cited from earlier work; for effect on atherosclerotic lesions: streptozotocin-treated Apoe−/− mice.
The next data set addresses T1, IL-1β (Homo sapiens, UniProt P01584).
T1 construct: host or cells: patients of a clinical trial (endogenous protein)
To be noted: humans with prior MI and elevated hsCRP; cited from earlier work.

Where two headings read alike, the source gives them in different places.

`Cc1c(C)c2c(c(C)c1O)CC[C@@](C)(CCC[C@H](C)CCC[C@H](C)CCCC(C)C)O2` [alpha tocopherol]: in the data set on Apoe−/− mice (Apoe−/− mice), the effect on atherosclerosis entry is “reduces” and the “effect on urine F2-IsoP levels” value is given as “reduces”.
On to `N=C(N)NN` [aminoguanidine], for which the “effect on atherosclerotic lesions” value in the data set with Apoe−/− mice is listed as “reduce atherosclerotic lesions”.
In the case of `NCCC(=O)N[C@@H](Cc1cnc[nH]1)C(=O)O` [carnosine], the effect on atherosclerosis entry in the data set with Apoe−/− mice (Apoe−/− mice or streptozotocin-treated Apoe−/− mice) was “reduce atherosclerosis”.
`Cc1ncc(CO)c(CN)c1O` [pyridoxamine]: the “effect on atherosclerotic lesions” value in the data set on Apoe−/− mice is given as “reduce atherosclerotic lesions”.
As for “canakinumab: an IL-1β neutralizing monoclonal antibody”, the cardiovascular event rates result with IL-1β is listed as “reduce cardiovascular event rates”.
